Data set [1] concerns HUVEC. The data set can be described thus: HUVEC proliferation assay. The data set is classed as cell-based, human. Particulars: 1.3 nM VEGF. As for the experimental part: HUVEC proliferation assay. HUVEC cells (ScienceCell) were harvested using enzyme free cell dissociation buffer and resuspended in ECM (5% FBS). Cells were plated (2000 cells/well) on white, clear bottom 96-well plates coated with gelatin. Cells were grown for 24 h at 37° C. […] The treatment was repeated with fresh media (0.2% FBS) and reagents after two days. After four days, viable cells were determined using CellTiter-Glo® Luminescent Cell Viability Assay kit (Promega), and the luminescent signal was read by the plate reader.

The test system of data set [2] is A673 (human Ewing's sarcoma) tumors. Particulars: mouse, in vivo.
Procedure: Cell Culture. The human Ewing's sarcoma cell line A673 (CRL-1598, ATCC, Manassas, Va.) was grown as a monolayer in Dulbeco's minimal essential medium (Invitrogen, Carlsbad, Calif.) supplemented with 10% heat-inactivated fetal calf serum (Atlanta Biologicals, Lawrenceville, Ga.). Cells were maintained at 37° C. in a mixture of 5% CO2 and 95% air. Cell viability was monitored by Trypan Blue (Invitrogen, Carlsbad, Calif.) exclusion after trypsinization. Cell fingerprinting was performed by Dr. Luc Girard at the McDermott Center at UT Southwestern to verify identity of cells and the cells were also tested and found to be negative for Mycoplasma prior to use.
Tumor study. Tumors were established in the right flank of 6-8 week old female athymic nu/nu mice (NCl, Frederick, Md.) by subcutaneous injection of 2.5 million cells in a volume of 50 μl PBS. On the same day, an Alzet subcutaneous pump (DURECT Corporation, Cupertino Calif.) was implanted per manufacturer's recommendations. […] Pumps were weighed empty and again when filled to ensure correct loading. Based on the mean pumping rate (0.2 μl/hr), these pumps were predicted to elute for 21 days. Implantation of the pump was performed by making a small incision on the back of the anesthetized animal and subsequently using a hemostat to create a subcutaneous pocket in which to place the pump. The incision was closed with a 5-0 prolene (Ethicon, Somerville, N.J.). Animal weights and tumor volumes (calipers) were recorded twice weekly. Volumes were calculated using the formula D*d^2*0.52 where D is the long diameter and d is the perpendicular short diameter.
Immunohistochemistry. Formalin-fixed tissues were embedded in paraffin, sectioned and stained with hematoxylin and eosin by the Molecular Histopathology Laboratory at UT Southwestern. H&E photographs were taken at a total magnification of 40× on a Nikon DXM 1200 digital camera (Melville, N.Y.). For immunohistochemical staining, slides were deparaffinized by heating at 60° C. for one hour followed by immersion in xylenes. Tissue was rehydrated by sequential immersion in ethanols. Endogenous peroxidase activity was blocked with 3% H2O2 in methanol. Antigen retrieval was performed using pH 6.0 citrate buffer (LabVision, Freemont, Calif.) for 15 minutes in a pressure cooker. […] The primary antibody was detected by incubating with a biotinylated donkey anti-rat IgG (Jackson ImmunoResearch, Westgrove, Pa.) followed by the ABC detection kit (Vector laboratories, Burlingame, Calif.). […] Microvessel density (MVD) was determined by manually counting the number of blood vessels in visible in the microscopic field of view (total magnification, 100×). […]
Data set [3] concerns the target T1, VEGFR2 (Homo sapiens, UniProt P35968). Description: GU40C4 cell surface binding assay (biotinylated peptoid, streptavidin quantum dots). Details: allow the library to be screened against the full-length receptor in as natural an environment as possible; host or cells: PAE/KDR (porcine aortic endothelial cells expressing human KDR). Particulars: for binding to cells with or without native VEGFR2: HeLa, HEK-293, HFF, MCF-7, only MCF-7 expresses VEGFR2. Type of data set: cell-based. Here is the method:
Different types of cells (PAE/KDR, PAE, Hela, HEK-293, MCF-7, HFF) were grown on each well of chamber slides (Nalge Nunc International) (10,000 cells/chamber) overnight. Washed, and fixed cells with 3.7% formaldehyde and blocked with Startingblock blocking buffer. […] After the final washing, cells were mounted by ProLong® Gold antifade reagent with DAPI (Invitrogen) and visualized under DAPI filter of the fluorescence microscope.
Specificity of the GU40C4-VEGFR2 interaction on the cell surface. […] The DAPI-stained nuclei are shown in blue. […] In addition, the red halo was not observed when the VEGFR2-expressing PAE/KDR cells were incubated with only the streptavidin-coated red quantum dots without addition of the biotinylated peptoid (FIG. 5C).
An important question is whether the peptoid is able to recognize VEGFR2 on the surface of cells when the receptor is expressed at native levels. To address this question, the inventors incubated biotinylated CU40C4 and streptavidin-coated red quantum dots with four different cell lines: HeLa, HEK-293, human foreskin fibroblast (HFF) and MCF-7. Of these, only MCF-7 expresses significant quantities of the VEGFR2. […] The inventors conclude from these experiments that the dimeric peptoid is highly specific for the VEGFR2 and can recognize the receptor even when it is expressed at native levels on the surface of a breast cancer cell.
Target sequence in this assay (P35968 20-1356): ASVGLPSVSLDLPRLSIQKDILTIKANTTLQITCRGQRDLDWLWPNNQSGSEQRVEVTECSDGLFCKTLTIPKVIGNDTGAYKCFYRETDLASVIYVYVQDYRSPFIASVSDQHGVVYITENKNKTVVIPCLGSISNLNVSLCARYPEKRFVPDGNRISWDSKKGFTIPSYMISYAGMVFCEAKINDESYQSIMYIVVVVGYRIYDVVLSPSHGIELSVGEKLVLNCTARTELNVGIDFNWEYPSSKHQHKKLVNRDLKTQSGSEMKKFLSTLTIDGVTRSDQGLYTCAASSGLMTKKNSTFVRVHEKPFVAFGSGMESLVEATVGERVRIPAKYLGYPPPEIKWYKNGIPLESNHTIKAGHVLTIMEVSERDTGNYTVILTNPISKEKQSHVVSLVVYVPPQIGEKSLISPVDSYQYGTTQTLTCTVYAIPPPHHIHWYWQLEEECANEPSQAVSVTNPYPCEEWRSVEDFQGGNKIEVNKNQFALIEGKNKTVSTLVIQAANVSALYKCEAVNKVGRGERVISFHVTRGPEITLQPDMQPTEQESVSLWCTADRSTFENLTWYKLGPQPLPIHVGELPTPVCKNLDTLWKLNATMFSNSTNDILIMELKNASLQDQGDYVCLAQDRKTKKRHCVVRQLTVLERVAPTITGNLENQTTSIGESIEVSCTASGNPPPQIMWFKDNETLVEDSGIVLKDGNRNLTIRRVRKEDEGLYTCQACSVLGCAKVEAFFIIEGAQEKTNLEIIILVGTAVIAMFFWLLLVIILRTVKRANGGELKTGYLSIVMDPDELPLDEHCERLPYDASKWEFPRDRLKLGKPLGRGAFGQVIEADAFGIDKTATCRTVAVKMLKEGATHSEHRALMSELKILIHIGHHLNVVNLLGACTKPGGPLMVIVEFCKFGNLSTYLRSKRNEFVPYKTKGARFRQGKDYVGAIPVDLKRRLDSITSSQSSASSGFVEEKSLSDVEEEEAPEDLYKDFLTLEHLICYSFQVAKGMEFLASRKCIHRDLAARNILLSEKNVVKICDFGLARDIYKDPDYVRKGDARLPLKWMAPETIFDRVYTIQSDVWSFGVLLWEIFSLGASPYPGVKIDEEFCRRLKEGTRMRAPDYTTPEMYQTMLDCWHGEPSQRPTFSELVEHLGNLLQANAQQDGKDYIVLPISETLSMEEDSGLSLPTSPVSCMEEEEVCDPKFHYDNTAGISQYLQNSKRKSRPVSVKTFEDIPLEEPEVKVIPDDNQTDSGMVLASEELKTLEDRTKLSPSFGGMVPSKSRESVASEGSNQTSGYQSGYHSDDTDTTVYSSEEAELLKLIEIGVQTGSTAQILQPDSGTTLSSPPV

For data set [4], the target named is T1, VEGFR2. Description: VEGF-induced VEGFR2 autophosphorylation in PAE/KDR cells, Western blot. Type of data set: cell-based. On the set-up: allow the library to be screened against the full-length receptor in as natural an environment as possible; host or cells: PAE/KDR (porcine aortic endothelial cells expressing human KDR). Here is the method:
Western blots. Experiments were conducted using PAE/KDR cells that were grown on 6-well plates. […] The blots were probed with Phospho-VEGF receptor 2 (Tyr1175) (19A10) rabbit monoclonal or Total VEGFR2 primary antibodies (Cell signaling) and HRP-conjugated secondary antibody (BioRad).
Functional characterization of the VEGFR2-binding peptoids. GU40C and GU40E were then tested for their ability to modulate VEGFR function. Of course, since the screen simply demanded binding of the peptoid to the receptor, it was not a given that this would be the case. […] Western blot analysis using phospho-VEGFR2-specific antibodies was then employed to monitor receptor activation.
To do so, the inventors examined the effect of the peptoid on VEGF-induced VEGFR2 autophosphorylation by Western blotting, as described earlier.
Target sequence in this assay (P35968 20-1356): as above
On the technique in general: Immunoblotting shows a protein as a band on a membrane.

Data set [5] relates to HUVEC. Description: HUVEC tube formation assay. Type of data set: cell-based, human. As to conditions: 1.3 nM VEGF. As for the experimental part: HUVEC tube formation assay. Endothelial cell medium gel (ECM gel) was thawed overnight at 4° C. refrigerator and added 50 μl to each well of pre-chilled white, clear bottom 96-well plate. Incubated for 30 min to facilitate the gel formation. […] 150 μl of these treated cell suspension (20,000 cells) was added per well and incubated at 37° C. and visualized tube formation under the light microscope after 16 hours (10× magnification).

The target of a further data set is VEGFR2 ECD (Homo sapiens, UniProt P35968). Description: Competitive binding assay against fluoresceinated GU40C. Particulars: increasing concentrations of unlabelled competitor. From the text: FIGS. 17A-B. GU40C truncation study results. (FIG. 17A) Downward arrows show GU40C truncation positions (FIG. 17B) Competitive binding assay results; increasing concentrations of unlabelled GU40C and truncated derivatives were competed with a constant amount of fluoraceinated GU40C. Symbols represent; GU40C (□), 8-mer (▴), 7-mer (▾), 6-mer (⋄), 5-mer (∘), 4-mer (▪), control (x).
VEGFR2 ECD, sequence (P35968 20-764 limits assumed): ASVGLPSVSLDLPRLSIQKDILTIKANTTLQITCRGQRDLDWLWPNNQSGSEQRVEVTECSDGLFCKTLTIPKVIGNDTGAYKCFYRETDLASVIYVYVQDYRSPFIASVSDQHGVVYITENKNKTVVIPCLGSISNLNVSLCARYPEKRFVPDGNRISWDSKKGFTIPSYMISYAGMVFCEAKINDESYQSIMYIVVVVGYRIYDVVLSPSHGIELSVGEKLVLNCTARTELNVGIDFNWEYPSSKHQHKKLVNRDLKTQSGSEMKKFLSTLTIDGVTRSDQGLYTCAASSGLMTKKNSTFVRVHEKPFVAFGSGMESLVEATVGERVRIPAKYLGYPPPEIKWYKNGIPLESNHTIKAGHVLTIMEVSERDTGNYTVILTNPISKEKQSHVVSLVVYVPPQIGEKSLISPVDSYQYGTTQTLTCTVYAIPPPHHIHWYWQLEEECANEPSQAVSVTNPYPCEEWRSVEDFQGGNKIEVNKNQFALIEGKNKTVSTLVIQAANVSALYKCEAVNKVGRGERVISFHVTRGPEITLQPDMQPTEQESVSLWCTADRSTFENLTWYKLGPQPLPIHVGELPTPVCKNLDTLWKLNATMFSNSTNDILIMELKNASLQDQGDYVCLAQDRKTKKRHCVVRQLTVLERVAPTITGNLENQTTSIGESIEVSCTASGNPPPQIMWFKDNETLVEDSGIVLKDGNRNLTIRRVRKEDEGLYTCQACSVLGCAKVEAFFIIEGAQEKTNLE
To identify the main chain amides important for binding, the inventors synthesized five different truncated versions of GU40C, each containing all four of the N-terminal residues (FIG. 17A). Increasing concentrations of these truncated versions were competed with a constant amount of fluoresceinated GU40C for binding to the VEGR2 ECD. […] Elimination of the first C-terminal residue weakened binding about ten-fold (FIG. 17B). Further elimination of the next three C-terminal residues further diminished binding only slightly. However, deletion of the next residue essentially abolished binding of the peptoid to the VEGFR2 ECD.

The target of a further data set is T2, CD105 (Homo sapiens, UniProt P17813).
T2 sequence (P17813 26-658): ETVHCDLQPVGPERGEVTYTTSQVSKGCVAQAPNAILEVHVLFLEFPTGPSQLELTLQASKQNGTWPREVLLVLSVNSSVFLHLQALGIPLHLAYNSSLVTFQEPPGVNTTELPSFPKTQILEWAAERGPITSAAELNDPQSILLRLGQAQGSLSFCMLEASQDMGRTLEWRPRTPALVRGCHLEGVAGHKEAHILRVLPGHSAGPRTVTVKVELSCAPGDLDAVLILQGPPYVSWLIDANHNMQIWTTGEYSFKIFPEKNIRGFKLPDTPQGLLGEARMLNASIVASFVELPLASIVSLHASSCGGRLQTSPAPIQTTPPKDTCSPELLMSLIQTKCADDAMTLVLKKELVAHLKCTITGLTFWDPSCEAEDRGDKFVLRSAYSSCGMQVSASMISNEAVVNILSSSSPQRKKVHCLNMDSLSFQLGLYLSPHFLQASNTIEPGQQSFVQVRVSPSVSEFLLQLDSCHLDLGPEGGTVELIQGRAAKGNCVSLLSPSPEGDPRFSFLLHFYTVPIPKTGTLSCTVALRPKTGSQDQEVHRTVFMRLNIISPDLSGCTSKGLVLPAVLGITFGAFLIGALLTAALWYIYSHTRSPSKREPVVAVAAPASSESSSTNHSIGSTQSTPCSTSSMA
The data set can be described thus: ELISA-like binding assay on immobilized CD105. As to conditions: same ELISA-like assay. A general note: An ELISA detects its analyte on a solid surface through an enzyme-linked reagent.

In data set [6] the target is T1, VEGFR2. The data set can be described thus: ELISA-like binding assay, fluoresceinated peptoids on immobilized VEGFR2 extracellular domain. Details: VEGFR2 extracellular domain (amino acids 1-764 fused to 6× histidine-tagged Fc of human IgG, via the peptide IEGRMD; R&D Systems); linker peptide IEGRMD (internal); Fc of human IgG (C); 6xHis (C); purchased R&D Systems. Particulars: for Kd: ELISA-like assay. Here is the method: ELISA based binding assay. White, clear bottom 96-well plates (Corning Inc.) were coated with of 1 μg/ml recombinant human VEGFR2 protein (R&D Systems) using the sensitizing buffer (0.621 g NaHCO3 & 0.275 g Na2CO3 dissolved on 100 ml of ddH2O, pH=9.5) overnight at 4° C. Washed with 3×200 μl of wash buffer 1×PBS with 0.05% Tween-20 and blocked with Startingblock blocking buffer (Pierce). Added 50 μl of serial dilutions of FITC labeled peptoids dissolved in Startingblock blocking buffer to each well & allowed to react for 1 h at room temperature. Washed with 5×200 μl of wash buffer 1×PBS with 0.05% Tween-20 and remaining fluorescence was measured at 520 nm using the plate reader.
The isolated peptoids are VEGFR2 ligands. Two of the ‘hits’ from this screen, GU40C and GU40E (see FIG. 2) were resynthesized, both as free compounds and with C-terminal Cys (for C-terminal fluorescein tagging via maleimide chemistry), cleaved from the beads and purified to apparent homogeneity by reverse phase HPLC. […] The association of these peptoids with VEGFR2 was evaluated using an ELISA-like assay. A commercially available fusion protein containing the VEGFR2 extracellular domain (amino acids 1-764 fused to 6× histidine-tagged Fc of human IgG, via the peptide IEGRMD; R&D Systems) was plated into 96-well plates and then mixed with various concentrations of […] Fluorescein (FITC)-labeled peptoid. After washing away unbound peptoid, the remaining fluorescence emission signal was measured at 520 nm. In this assay purified VEGFR2 protein was used instead of the whole PAE/KDR cells that over express VEGFR2, in order to confirm these compounds were binding only to the receptor.
Target sequence in this assay (P35968 20-764): as the sequence (P35968 20-764 limits assumed) above

The subject of another data set is GST. The data set can be described thus: ELISA-like binding assay on immobilized GST. Particulars: same ELISA-like assay.

The structures appear in SMILES notation. Entries after “also recorded” stand apart in the source; their conditions may differ. Like-named read-outs stand apart in the source and are kept apart here. Starred links: 1 amine or outer side, 2 acyl side, 3 side chain; linkers in the order of their positions; H or OH if unused. Positions of bridges follow the written chain, without caps; N, C: chain ends. Non-standard residues stand in square brackets, D forms with d. Residues, ends and D or L forms follow the SMILES beside them. Chains are numbered I, II in the order given. *: point of attachment. Fluorescein(5-Mal) = O=C1OC2(c3ccc(O)cc3Oc3cc(O)ccc32)c2ccc(N3C(=O)CC(*)C3=O)cc21; Gly(N-piperonyl) = O=C(O)CNCc1ccc2c(c1)OCO2; X1 = CC(c1ccccc1)N(CC(=O)[*:2])[*:1]; Nrpe = C[C@@H](NCC(=O)O)c1ccccc1; Nleu = CC(C)CNCC(=O)O; Nlys = NCCCCNCC(=O)O; Ahx = NCCCCCC(=O)O; βAla = NCCC(=O)O

Consider `CC(C)CN(CC(=O)N(CCCCN)CC(=O)N(CC(=O)N(CC(=O)N(CCCCN)CC(=O)N(CC(=O)N(CCCCN)CC(=O)N(CCCCN)CC(=O)NCCCCCC(=O)NCCC(=O)N[C@@H](CCCCNC(=O)CN(CCCCN)C(=O)CN(CCCCN)C(=O)CN(CC(C)C)C(=O)CN(CCCCN)C(=O)CN(Cc1ccc2c(c1)OCO2)C(=O)CN(C(=O)CN(CCCCN)C(=O)CN(CC(C)C)C(=O)CNCCCCN)[C@H](C)c1ccccc1)C(=O)N[C@@H](CSC1CC(=O)N(c2ccc3c(c2)C(=O)OC32c3ccc(O)cc3Oc3cc(O)ccc32)C1=O)C(N)=O)CC(C)C)Cc1ccc2c(c1)OCO2)[C@H](C)c1ccccc1)C(=O)CNCCCCN` (stereo partly drawn) [GU40C4] (I: H-[Nlys][Nleu][Nlys][Nrpe][Gly(N-piperonyl)][Nlys][Nleu][Nlys][Nlys][Ahx][βAla]KC(Fluorescein(5-Mal))-NH2 / II: H-[Nlys][Nleu][Nlys][Nrpe][Gly(N-piperonyl)][Nlys][Nleu][Nlys][Nlys]; amide I:12-II:C), for which, in the data set with HUVEC [1] (4 days, read-out: IC50 of VEGF-induced HUVEC proliferation), the IC50 was around 1000 nM. Besides, in the data set on HUVEC [1] (1 μM), the “inhibition of HUVEC proliferation (in words)” value was “halfway”. The “inhibition of HUVEC proliferation (in words)” value with HUVEC [1] (10 μM) was “reduced to essentially basal levels; also recorded: almost to the basal level”. Besides, in data set [2], the “adverse effects of treatment” value was “no adverse effects”, the “time after cessation of therapy until tumors grow at a rate similar to control” value lay within 3 to 4 days, the “tumor necrosis (H&E histology)” value is reported as “induced significant tumor necrosis” and the tumor size entry was “approximately 200 mm^3”. Also, at VEGFR2 [3] (100-fold excess unlabeled GU40C4), the “binding signal on PAE/KDR cells with competitor” value is “disappeared completely”. In addition, the “binding to cells with or without native VEGFR2” value on VEGFR2 [3] is listed as “did not associate detectably with cells that lacked VEGFR2”. Further, the “binding to cells with or without native VEGFR2” value on VEGFR2 [3] (listed as CU40C4) is on record as “red halo was observed only when the peptoid was incubated with the MCF-7 cells”. The “binding to PAE parental cells” value on VEGFR2 [3] (cells lacking the VEGFR2 expression vector) is reported as “did not bind detectably”. In addition, the “improvement of antagonism over the monomeric parent compound” value at VEGFR2 [4] was 100- to 500 fold. Also, the “effect on VEGF-induced HUVEC tube formation” value with HUVEC [5] (1 μM and 10 μM) is “Clear evidence of the inhibition of tube formation; also recorded: able to disrupt HUVEC tube formation; also recorded: disrupted HUVEC tube formation”.

Regarding `CC(C)CN(CC(=O)N(CCCCN)CC(=O)N(CC(=O)N(CC(=O)N(CCCCN)CC(=O)N(CC(=O)N(CCCCN)CC(=O)N(CCCCN)CC(=O)O)CC(C)C)Cc1ccc2c(c1)OCO2)C(C)c1ccccc1)C(=O)CNCCCCN` (stereo not drawn) [GU40C, Nlys-Nleu-Nlys-Nmba-Npip-Nlys-Nleu-Nlys-Nlys] (H-[Nlys][Nleu][Nlys][X1][Gly(N-piperonyl)][Nlys][Nleu][Nlys][Nlys]-OH), the “competition with fluoresceinated GU40C for binding to VEGFR2 ECD” value on VEGFR2 ECD is “competed efficiently”. Also, the “binding to CD105” value on CD105 is “did not bind detectably”. For the same molecule, the Kd at VEGFR2 [6] (immobilized VEGFR2 extracellular domain, read-out: KD) was 2850 ± 400 nM; at VEGFR2 [6] (read-out: dissociation constant (KD)), around 2000 nM. For the same molecule, the “binding to VEGFR2 ECD (in words)” value at VEGFR2 [6] (ELISA-like binding assay) is “able to display binding”. For the same molecule, the “binding after pre-incubation of immobilized receptor with unlabeled VEGF” value on VEGFR2 [6] (fluoresceinated peptoid) is “almost no binding”. On VEGFR2 [4] (PAE/KDR cells, Western blot), the “agonist activity on VEGFR2 phosphorylation” value is reported as “Neither peptoid at any concentration tested evinced agonist activity; also recorded: None of the peptoids exhibited agonist activity”. At VEGFR2 [4] (monomeric peptoids, 500 μM, 1.3 nM VEGF), the “effect on VEGF-induced VEGFR2 phosphorylation (in words)” value was “weak antagonists”. In addition, the “inhibition of VEGFR2 phosphorylation” value on VEGFR2 [4] (peptoid 500 μM, 1.3 nM VEGF, PAE/KDR cells) is “approximately 75%”. In addition, the “effect on VEGF-induced HUVEC tube formation” value in the data set on HUVEC [5] (10 μM) was “slight effect; also recorded: small effect”. Moreover, in the data set on GST, the “binding to GST” value is listed as “did not bind detectably”.

One may read the Kd as the concentration at which binding is half-saturated.

The values above are taken from patent publication US8334239B2, “High affinity VEGF-receptor antagonists” (The Board of Regents of the University of Texas System, priority 2007, dated 2012).
